For 32 compounds, IC50 results are on record in patent US10947213B1 (Merck Patent GmbH, priority 2015, dated 2021).

The structures appear in SMILES notation. Structures can show the parent of a compound that is named as a salt. A value given as a limit tells only on which side of the number the result lay.

For the test, the target named is T1, TLR7/NFKb HEK cells (Homo sapiens, UniProt Q9NYK1).
T1 construct: expressed in transfected cells; host or cells: HEK cells (TLR7/NFKb reporter line)
T1 sequence (Q9NYK1 27-1049): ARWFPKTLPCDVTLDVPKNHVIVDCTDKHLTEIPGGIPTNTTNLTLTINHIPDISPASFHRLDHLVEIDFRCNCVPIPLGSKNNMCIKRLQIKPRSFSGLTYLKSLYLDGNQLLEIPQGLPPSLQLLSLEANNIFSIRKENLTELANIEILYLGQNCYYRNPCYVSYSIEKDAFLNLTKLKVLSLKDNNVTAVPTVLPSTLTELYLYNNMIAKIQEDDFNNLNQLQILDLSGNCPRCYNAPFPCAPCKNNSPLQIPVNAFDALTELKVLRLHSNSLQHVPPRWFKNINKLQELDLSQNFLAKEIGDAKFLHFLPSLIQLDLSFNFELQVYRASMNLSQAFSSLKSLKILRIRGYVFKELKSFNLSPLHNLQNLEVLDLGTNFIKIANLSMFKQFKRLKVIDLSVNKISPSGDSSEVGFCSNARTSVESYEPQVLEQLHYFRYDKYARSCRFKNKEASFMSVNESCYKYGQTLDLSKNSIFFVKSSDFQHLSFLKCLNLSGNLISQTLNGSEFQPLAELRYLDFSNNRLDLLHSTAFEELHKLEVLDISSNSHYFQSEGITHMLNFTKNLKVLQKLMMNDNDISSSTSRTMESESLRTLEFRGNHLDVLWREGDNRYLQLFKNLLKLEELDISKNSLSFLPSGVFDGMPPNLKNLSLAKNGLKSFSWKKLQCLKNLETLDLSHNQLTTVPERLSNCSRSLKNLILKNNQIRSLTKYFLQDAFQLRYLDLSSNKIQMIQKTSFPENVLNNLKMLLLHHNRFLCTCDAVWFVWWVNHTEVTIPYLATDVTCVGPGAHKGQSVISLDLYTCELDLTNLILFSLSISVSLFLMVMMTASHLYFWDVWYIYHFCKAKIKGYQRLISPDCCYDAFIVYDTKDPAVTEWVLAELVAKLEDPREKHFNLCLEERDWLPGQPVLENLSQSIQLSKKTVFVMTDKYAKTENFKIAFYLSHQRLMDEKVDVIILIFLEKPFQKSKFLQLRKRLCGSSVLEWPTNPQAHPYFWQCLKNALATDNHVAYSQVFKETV
Briefly: HEK Cell Assay (TLR7/NFKb reporter, Steady-Glo luciferase readout). The class given is cell-based. The settings on record: 30 min compound preincubation, then R*48 agonist for 5 hours, read-out: Potency. In a few lines:
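Steady-Glo luminescence after 5 h stimulation with R*48 agonist, following 30 min compound preincubation. Assay run in HEK cells carrying a TLR7/NFKb luciferase reporter, plated at 5000 cells/well and grown 24 h at 37° C (10% CO2) before treatment.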
In the case of `CC(C)[C@H](O)C(=O)N[C@@H]1C[C@H](C)CN(c2ccc(C(N)=O)c3ncccc23)C1` [Compound 181, 5-[(3R,5S)-3-[(2S)-2-hydroxy-3-methylbutanamido]-5-methylpiperidin-1-yl]quinoline-8-carboxamide], the IC50 is above 10000 nM.
The same measure for `C[C@H]1C[C@@H](NC(=O)CN2CCCN(C)CC2)CN(c2ccc(C(F)(F)F)c3ncccc23)C1` [Compound 290, 2-(4-methyl-1,4-diazepan-1-yl)-N-[(3R,5S)-5-methyl-1-[8-(trifluoromethyl)quinolin-5-yl]piperidin-3-yl]acetamide]: below 1000 nM; for `CC(C)(C)CC(=O)N[C@H]1C[C@@H](C2CC2)CN(c2ccc(C#N)c3nccnc23)C1` (relative stereo) [Compound 175, cis-N-[1-(8-cyanoquinoxalin-5-yl)-5-cyclopropylpiperidin-3-yl]-3,3-dimethylbutanamide]: 1000 to 10000 nM.
Take `C[C@H]1C[C@@H](N)CN(c2ccc(C#N)c3nccnc23)C1` [Compound 12, 8-((3R,5S)-3-amino-5-methylpiperidin-1-yl)quinoxaline-5-carbonitrile]: the IC50 was below 1000 nM.
As for `COCCN[C@@H]1C[C@H](C)CN(c2c(F)cc(C#N)c3nccnc23)C1` [Compound 344, 7-fluoro-8-[(3R,5S)-3-[(2-methoxyethyl)amino]-5-methylpiperidin-1-yl]quinoxaline-5-carbonitrile], the IC50 lay in the range of 1000 to 10000 nM.
The figure for `CCC(C)C(=O)N[C@@H]1C[C@H](C)CN(c2ccnc3nccnc23)C1` (single isomer, unassigned) [Compound 157] is above 10000 nM; for `C[C@H]1C[C@@H](NC2CCNC2=O)CN(c2ccnc3nccnc23)C1` (stereo partly drawn) [Compound 127, 3-[[(3R,5S)-5-methyl-1-[pyrido[2,3-b]pyrazin-8-yl]piperidin-3-yl]amino]pyrrolidin-2-one] it is above 10000 nM.
The same measure for `C[C@H]1C[C@@H](NCC#N)CN(c2ccnc3nccnc23)C1` [Compound 39, 2-((3R,5S)-5-methyl-1-(pyrido[2,3-b]pyrazin-8-yl)piperidin-3-ylamino)acetonitrile hydrochloride]: 1000 to 10000 nM.
The figure for `CC1(C)CCN(CC(=O)N[C@@H]2C[C@H](C(F)(F)F)CN(c3ccc(C#N)c4ncccc34)C2)C1` [Compound 577, N-[(3R,5S)-1-(8-Cyano-quinolin-5-yl)-5-trifluoromethyl-piperidin-3-yl]-2-(3,3-dimethyl-pyrrolidin-1-yl)-acetamide] is below 1000 nM; for `CCN(CC)CCNCC1CCN(c2ccnc3ccc(OC)cc23)CC1` [Compound 382, N,N-Diethyl-N′-[1-(6-methoxy-quinolin-4-yl)-piperidin-4-ylmethyl]-ethane-1,2-diamine] it is 1000 to 10000 nM; for `COc1ccc(N2C[C@@H](C)C[C@@H](NC(=O)CN(C)C)C2)c2cccnc12` [Compound 193, 2-(dimethylamino)-N-[(3R,5S)-1-(8-methoxyquinolin-5-yl)-5-methylpiperidin-3-yl]acetamide] it is 1000 to 10000 nM.
`CCN(CC)CCNC(=O)C1CCN(c2ccnc3ncccc23)CC1` [Compound 1, N-(2-(diethylamino)ethyl)-1-(1,8-naphthyridin-4-yl)piperidine-4-carboxamide]: the IC50 is above 10000 nM.
With `C[C@H]1C[C@@H](NC(=O)CC2CCN(C)CC2)CN(c2ccc(C(F)F)c3nccnc23)C1` [Compound 328, N-[(3R,5S)-1-[8-(difluoromethyl)quinoxalin-5-yl]-5-methylpiperidin-3-yl]-2-(1-methylpiperidin-4-yl)acetamide], the IC50 was below 1000 nM.
For `N#Cc1ccc(N2C[C@@H](N)C[C@@H](C(F)(F)F)C2)c2cccnc12` (relative stereo) [Compound 71, cis-5-(3-Amino-5-trifluoromethyl-piperidin-1-yl)-quinoline-8-carbonitrile], the IC50 was below 1000 nM.
For `CNC(=O)CN[C@@H]1C[C@H](C)CN(c2ccc(C(F)(F)F)c3ncccc23)C1` [Compound 569], the IC50 was below 1000 nM.
For the compound `C[C@H]1C[C@@H](NC(=O)C2CCN(C)C2)CN(c2ccc(C#N)c3nccnc23)C1` (stereo partly drawn) [Compound 236, N-[(3R,5S)-1-(8-cyanoquinoxalin-5-yl)-5-methylpiperidin-3-yl]-1-methylpyrrolidine-3-carboxamide], the IC50 was below 1000 nM.
The same measure for `c1ccc2c(N3CCC(COCCN4CCCCC4)CC3)ccnc2c1` [Compound 6, 4-(4-[[2-(piperidin-1-yl)ethoxy]methyl]piperidin-1-yl)quinoline]: 1000 to 10000 nM.
For the compound `C[C@H]1C[C@@H](NC(=O)CC2CCCN(C)C2)CN(c2ccc(C(F)(F)F)c3ncccc23)C1` (stereo partly drawn) [Compound 279, N-[(3R,5S)-5-methyl-1-[8-(trifluoromethyl)quinolin-5-yl]piperidin-3-yl]-2-(1-methylpiperidin-3-yl)acetamide], the IC50 is below 1000 nM.
Consider `COCC(=O)N[C@@H]1C[C@H](C)CN(c2ccc(C#N)c3nccnc23)C1` [Compound 134, N-[(3R,5S)-1-(8-cyanoquinoxalin-5-yl)-5-methylpiperidin-3-yl]-2-methoxyacetamide], for which the IC50 was 1000 to 10000 nM.
The same measure for `CCN(CC)CCNC(=O)N1CCN(c2ccc(C#N)c3nccnc23)CC1` [Compound 453, 4-(8-Cyano-quinoxalin-5-yl)-piperazine-1-carboxylic acid (2-diethylamino-ethyl)-amide]: below 1000 nM; for `CN1CCC(CNC(=O)C2CN(c3ccc(C#N)c4ncccc34)CC(F)(F)C2)CC1` (single isomer, unassigned) [Compound 546]: below 1000 nM; for `N#Cc1ccc(N2C[C@@H](NC(=O)CO)C[C@@H](C(F)(F)F)C2)c2nccnc12` (relative stereo) [Compound 223, cis-N-[1-(8-cyanoquinoxalin-5-yl)-5-(trifluoromethyl)piperidin-3-yl]-2-hydroxyacetamide]: 1000 to 10000 nM.
Regarding `C[C@H]1C[C@@H](NC(=O)C(O)C2CC2)CN(c2ccc(C(F)(F)F)c3ncccc23)C1` (single isomer, unassigned) [Compound 521], the IC50 was below 1000 nM.
The same measure for `N#Cc1ccc(N2C[C@@H](NC(=O)CCC(N)=O)C[C@@H](C(F)(F)F)C2)c2cccnc12` (relative stereo) [Compound 480, cis-N-[1-(8-Cyano-quinolin-5-yl)-5-trifluoromethyl-piperidin-3-yl]-succinamide]: 1000 to 10000 nM; for `CC(C)(C)NCC(=O)NCC1CCN(c2ccc(C#N)c3ncccc23)CC1` [Compound 413, 2-tert-Butylamino-N-[1-(8-cyano-quinolin-5-yl)-piperidin-4-ylmethyl]-acetamide]: below 1000 nM; for `N#Cc1ccc(N2CC(N)CC(C(F)(F)F)C2)c2nccnc12` (single isomer, unassigned) [Compound 82]: below 1000 nM.
The figure for `C[C@H]1C[C@@H](NC(=O)CC2CCN(C)C2)CN(c2ccc(C(F)F)c3ncccc23)C1` (stereo partly drawn) [Compound 307, N-[(3R,5S)-1-[8-(difluoromethyl)quinolin-5-yl]-5-methylpiperidin-3-yl]-2-(1-methylpyrrolidin-3-yl)acetamide] is below 1000 nM.
In the case of `CC1CCCC(C)N1CCNC(=O)C1CCN(c2ccc(C#N)c3ncccc23)CC1` (centres unmarked) [Compound 414, 1-(8-Cyano-quinolin-5-yl)-piperidine-4-carboxylic Acid [2-(2,6-dimethyl-piperidin-1-yl)-ethyl]-amide], the IC50 was below 1000 nM.
For `CC(C(=O)NC1CN(c2ccc(C#N)c3nccnc23)CC(F)(F)C1)N1CCOCC1` (centres unmarked) [Compound 509, N-[1-(8-Cyano-quinoxalin-5-yl)-5,5-difluoro-piperidin-3-yl]-2-morpholin-4-yl-propionamide], the IC50 was above 10000 nM.
The same measure for `N[C@@H]1C[C@H](C(F)(F)F)CN(c2ccnc3nccnc23)C1` (racemic) [Compound 84]: 1000 to 10000 nM.
The same measure for `COc1ccc(N2C[C@@H](C)C[C@@H](NC(=O)CC(C)(C)C)C2)c2nccnc12` [Compound 202, N-[(3R,5S)-1-(8-methoxyquinoxalin-5-yl)-5-methylpiperidin-3-yl]-3,3-dimethylbutanamide]: 1000 to 10000 nM.
The figure for `CCN(CC)CC(=O)NC1CCN(c2ccnc3nccnc23)CC1` [Compound 390, 2-Diethylamino-N-(1-pyrido[2,3-b]pyrazin-8-yl-piperidin-4-yl)-acetamide] is 1000 to 10000 nM.
